Experimental data taken from ChEMBL document CHEMBL3351529, “Triazolopyridyl ketones as a novel class of antileishmanial agents. DNA binding and BSA interaction” (Bioorg Med Chem, 2014).
Active and inactive are the calls of the source. The rule behind the calls is not given here.

How the values were obtained:
Leishmania infantum [1] = assay: Antileishmanial activity against promastigote form of Leishmania infantum MCAN/ES/96/BCN150 after 48 hrs by resazurin fluorescence assay; assay type: functional, organism-based
Leishmania amazonensis [2] = assay: Antileishmanial activity against promastigote form of Leishmania amazonensis MHOM/Br/79/Maria after 48 hrs by resazurin fluorescence assay; assay type: functional, organism-based
Leishmania braziliensis = assay: Antileishmanial activity against promastigote form of Leishmania braziliensis 2903 after 48 hrs by resazurin fluorescence assay; assay type: functional, organism-based; conditions: Leishmania braziliensis, 2903, 48 h
Leishmania guyanensis = assay: Antileishmanial activity against promastigote form of Leishmania guyanensis 141/93 after 48 hrs by resazurin fluorescence assay; assay type: functional, organism-based; conditions: 141/93, 48 h
[3] = Cytotoxicity against mouse J774 cells assessed as reduction in cell viability after 24 hrs by resazurin fluorescence assay; assay type: cell-based
[4] = Selectivity index, ratio of CC50 for mouse J774 cells to IC50 for promastigote form of Leishmania braziliensis 2903; assay type: functional
[5] = Selectivity index, ratio of CC50 for mouse J774 cells to IC50 for promastigote form of Leishmania guyanensis 141/93; assay type: functional
[6] = Selectivity index, ratio of CC50 for mouse J774 cells to IC50 for promastigote form of Leishmania infantum MCAN/ES/96/BCN150; assay type: functional
[7] = Selectivity index, ratio of CC50 for mouse J774 cells to IC50 for promastigote form of Leishmania amazonensis MHOM/Br/79/Maria; assay type: functional
Calf thymus DNA [8] = assay: Binding affinity to calf thymus DNA at 10 uM by UV-visible titration method; assay type: nucleic-acid assay; conditions: Bos taurus
Leishmania infantum [9] = assay: Antileishmanial activity against amastigote form of Leishmania infantum MCAN/ES/96/BCN150 infected in mouse J774 cells assessed as reduction in intracellular amastigotes compound treated for 48 hrs followed by 3 days incubation for transformation by resazurin fluorescence assay; assay type: functional, organism-based; conditions: MCAN/ES/96/BCN150, J774
[10] = Selectivity index, ratio of CC50 for mouse J774 cells to IC50 for amastigote form of Leishmania infantum MCAN/ES/96/BCN150 infected in mouse J774 cells; assay type: functional
Leishmania amazonensis [11] = assay: Antileishmanial activity against amastigote form of Leishmania amazonensis MHOM/Br/79/Maria infected in mouse J774 cells assessed as reduction in intracellular amastigotes compound treated for 48 hrs followed by 3 days incubation for transformation by resazurin fluorescence assay; assay type: functional, organism-based
Leishmania infantum [12] = assay: Antileishmancidal activity against amastigote form of Leishmania infantum MCAN/ES/96/BCN150 infected in BALB/c mouse assessed as reduction of parasite burden in spleen at 5 mg/kg, ip qd for 5 consecutive days starting 21 days post infection measured after 7 days relative to untreated control; assay type: functional; set-up: scale not given: the % may be the effect or the level left; conditions: route intraperitoneal
Leishmania infantum [13] = assay: Antileishmancidal activity against amastigote form of Leishmania infantum MCAN/ES/96/BCN150 infected in BALB/c mouse assessed as reduction of parasite burden in liver at 5 mg/kg, ip qd for 5 consecutive days starting 21 days post infection measured after 7 days relative to untreated control; assay type: functional
Calf thymus DNA [14] = assay: Binding affinity to calf thymus DNA assessed as hypochromic effect at DNA-compound ratio of 3 by UV-visible titration method; assay type: nucleic-acid assay; conditions: Bos taurus
Calf thymus DNA [15] = assay: Binding affinity to calf thymus DNA by UV-visible titration method; assay type: nucleic-acid assay; conditions: Bos taurus
Bos taurus = species: Bos taurus; assay: Effect on calf thymus DNA viscosity at 1 to 10 uM
Albumin [16] = biological target: T1, Albumin (Bos taurus, UniProt P02769); assay: Binding affinity to bovine serum albumin after 10 mins by fluorimetric titration method; assay type: ADME; conditions: cattle, isolated protein
T1 sequence (P02769 whole entry): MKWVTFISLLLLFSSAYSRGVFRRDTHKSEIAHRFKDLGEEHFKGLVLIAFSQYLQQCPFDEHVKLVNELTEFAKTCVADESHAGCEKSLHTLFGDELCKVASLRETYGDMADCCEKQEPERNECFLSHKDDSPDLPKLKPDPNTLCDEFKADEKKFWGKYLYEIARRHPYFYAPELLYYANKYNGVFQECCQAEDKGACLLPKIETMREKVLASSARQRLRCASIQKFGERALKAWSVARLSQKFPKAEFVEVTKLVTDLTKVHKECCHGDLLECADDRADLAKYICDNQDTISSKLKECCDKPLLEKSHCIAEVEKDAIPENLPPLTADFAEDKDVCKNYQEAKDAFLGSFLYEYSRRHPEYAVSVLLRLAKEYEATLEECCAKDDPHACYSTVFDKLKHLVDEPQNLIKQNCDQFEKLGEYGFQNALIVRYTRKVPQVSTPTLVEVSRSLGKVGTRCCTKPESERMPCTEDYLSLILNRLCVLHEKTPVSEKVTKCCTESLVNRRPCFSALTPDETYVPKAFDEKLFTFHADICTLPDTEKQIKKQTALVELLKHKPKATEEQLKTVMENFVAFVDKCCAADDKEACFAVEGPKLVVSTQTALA

Albumin [17] = biological target: T1, Albumin; assay: Binding affinity to bovine serum albumin assessed as quenching constant after 10 mins by Stern-Volmer plot method; assay type: ADME; conditions: cattle, isolated protein
Albumin [18] = biological target: T1, Albumin; assay: Competitive binding affinity to bovine serum albumin site 1 assessed as quenching constant after 10 mins by fluorimetric titration method in presence of warfarin; assay type: ADME; conditions: cattle, isolated protein
Albumin [19] = biological target: T1, Albumin; assay: Competitive binding affinity to bovine serum albumin site 2 assessed as quenching constant after 10 mins by fluorimetric titration method in presence of ibuprofen; assay type: ADME; conditions: cattle, isolated protein
[20] = Selectivity index, ratio of CC50 for mouse J774 cells to IC50 for amastigote form of Leishmania amazonensis MHOM/Br/79/Maria infected in mouse J774 cells; assay type: functional
Mus musculus [21] = assay: Toxicity in BALB/c mouse assessed as gross weight loss at 5 mg/kg, ip qd for 5 consecutive days; assay type: organism-based; set-up: dose 5 mg/kg, route intraperitoneal; conditions: in vivo
Mus musculus [22] = assay: Toxicity in BALB/c mouse assessed as hair loss at 5 mg/kg, ip qd for 5 consecutive days; assay type: organism-based; set-up: dose 5 mg/kg, route intraperitoneal; conditions: in vivo
[23] = Leishmania infantum, MCAN/ES/96/BCN150, 48 h, read-out: IC50
[24] = Leishmania amazonensis, MHOM/Br/79/Maria, 48 h, read-out: IC50

| Structure (SMILES) | Activity (Calf thymus DNA [14]) | Kb (Calf thymus DNA [15]) | Activity (Bos taurus) | Kb (Albumin [16]) | Kq (Albumin [16]) | KSV (Albumin [17]) | Kb (Albumin [18]) | Kb (Albumin [19]) | IC50 (Leishmania braziliensis) | IC50 (Leishmania guyanensis) | CC50 at 24 h [3] | Ratio CC50/IC50 [4] | Ratio CC50/IC50 [5] | IC50 (Leishmania infantum [1]; [23]) | IC50 (Leishmania amazonensis [2]; [24]) | Ratio CC50/IC50 [6] | Ratio CC50/IC50 [7] | IC50 (Leishmania infantum [9]) | Ratio CC50/IC50 [10] | Activity (Leishmania infantum [12]) | also measured |
| --- | --- | --- | --- | --- | --- | --- | --- | --- | --- | --- | --- | --- | --- | --- | --- | --- | --- | --- | --- | --- | --- |
| O=C(c1cccc2c(-c3ccccc3)nnn12)c1cccc2c(-c3ccccc3)nnn12 | – | – | – | – | – | – | – | – | 56.8 µM | 53.8 µM | ≥ 300 µM | >2.5 | >4.5 | – | – | – | – | – | – | – | IC50 (Leishmania infantum [1]): Not Active; IC50 (Leishmania amazonensis [2]): Not Active |
| O=C(c1ccccn1)c1cccc2c(-c3ccccc3)nnn12 | – | – | – | – | – | – | – | – | 169 µM | 126 µM | ≥ 300 µM | >1.8 | >2.4 | 173 µM | 106 µM | >1.9 | >2.8 | – | – | – | – |
| O=C(c1ccccn1)c1cccc(-c2nnn3ccccc23)n1 | – | – | – | – | – | – | – | – | 190 µM | 109 µM | ≥ 300 µM | >1.6 | >2.8 | 231 µM | 108 µM | >1.3 | >2.8 | – | – | – | Activity (Calf thymus DNA [8]): inactive |
| CCCCCCCCCCCCCCCCOP(=O)([O-])OCC[N+](C)(C)C [MILTEFOSINE] | – | – | – | – | – | – | – | – | 27.1 µM | 53.6 µM | 164 µM | 6 | 3.1 | 21.3 µM | 28.3 µM | 7.7 | 5.8 | – | 5.7 | – | Ratio CC50/IC50 [20]: 6.5 |

Second part, led by results:

| Activity (Calf thymus DNA [14]) | Kb (Calf thymus DNA [15]) | Activity (Bos taurus) | Kb (Albumin [16]) | Kq (Albumin [16]) | KSV (Albumin [17]) | Kb (Albumin [18]) | Kb (Albumin [19]) | Structure (SMILES) | IC50 (Leishmania braziliensis) | IC50 (Leishmania guyanensis) | CC50 at 24 h [3] | Ratio CC50/IC50 [4] | Ratio CC50/IC50 [5] | IC50 (Leishmania infantum [1]; [23]) | IC50 (Leishmania amazonensis [2]; [24]) | Ratio CC50/IC50 [6] | Ratio CC50/IC50 [7] | IC50 (Leishmania infantum [9]) | Ratio CC50/IC50 [10] | Activity (Leishmania infantum [12]) | also measured |
| --- | --- | --- | --- | --- | --- | --- | --- | --- | --- | --- | --- | --- | --- | --- | --- | --- | --- | --- | --- | --- | --- |
| 60% | 3.26 ×10⁵ /M | inactive | 1.9 ×10⁴ /M | 2.4 ×10¹³ /M/sec | 2.4 ×10⁵ /M | 8.2 ×10³ /M | 3.8 ×10³ /M | O=C(c1cccc(C(=O)c2cccc(-c3nnn4ccccc34)n2)n1)c1cccc(-c2nnn3ccccc23)n1 | 59.4 µM | 28.7 µM | ≥ 300 µM | >5.1 | >10.4 | 99.8 µM | 53.7 µM | >3 | >5.6 | 38 µM | >7.9 | 78.2% | IC50 (Leishmania amazonensis [11]; j774): Not Active; Activity (Leishmania infantum [13]): inactive |
| 60% | 1.14 ×10⁵ /M | inactive | 2.5 ×10⁴ /M | 2.6 ×10¹³ /M/sec | 2.6 ×10⁵ /M | 9.3 ×10³ /M | 5.3 ×10³ /M | O=C(c1cccc(-c2nnn3ccccc23)n1)c1cccc(-c2nnn3ccccc23)n1 | 26.8 µM | 29.3 µM | ≥ 300 µM | >11.2 | >10.2 | 47.3 µM | 89.6 µM | >6.3 | >3.3 | 19.5 µM | >15.3 | 99.3% | IC50 (Leishmania amazonensis [11]; Leishmania amazonensis, MHOM/Br/79/Maria, J774, read-out: IC50): 115 µM; Ratio CC50/IC50 [20]: >2.6; Activity (Leishmania infantum [13]; route intraperitoneal): 92.8%; Activity (Mus musculus [21]): Non-toxic; Activity (Mus musculus [22]): Non-toxic |
